Read-outs that look alike come from different tables or passages of the source.
Columns and labels:
[1] = test system: myeloma cell lines ARK, KMS11, RPMI 8226, and U266; assay: In vitro screening of DTP compounds on myeloma cell lines (CellTiter-Glo); assay type: cell-based, human
Procedure: Eight myeloma cell lines were contacted with the antineoplastic agents to be tested in ninety six well culture plates. […]
Myeloma cell lines were maintained at >90% viability at 37° C. and 5% CO2. Cells were diluted to 20,000 cells/ml in fresh medium. A 50-μl aliquot of cell suspension was seeded in 96-well tissue culture plates to final cell counts of 1,000 cells/well. All compounds obtained from NCI's Developmental Therapeutics Program (DTP compounds) were dissolved in 100% dimethylsulfoxide (DMSO) (Sigma-Aldrich, St. Louis, Mo.) at 1 mg/ml and further diluted in fresh medium to 1 μg/ml. Each compound (50-μl aliquots) was distributed to a well containing 1,000 myeloma cells. Each plate included controls with addition of only medium or only DMSO (0.5% final concentration). All experiments were conducted in triplicate.
Using CellTiter-Glo Luminescent Assay kit (Promega, Madison, Wis.) according to manufacturer's instructions, cell viability was assayed every 24 hours after addition of DTP compound for 5 days. Briefly, the CellTiter-Glo substrate was dissolved in buffer, and 100 μl was added to each well. […] The statistic sampling distribution for each compound per cell line was based on sample of n=15 measurements.
Other ellipticine derivatives from the DTP (at 0.5 mM final concentration) were used to screen the same four myeloma cell lines.

[2] = test system: RPMI8226 myeloma cell line; assay: CellTiter-Glo luminescent cell viability assay, RPMI8226; assay type: cell-based, human; parameters: unit of the concentration uncertain
Procedure: (§1) The dosage of each derivative was set at 2, 0.2 and 0.02 mM. A cell culture medium control and 0.5% DMSO control was maintained in each experiment. The cell viability was tested each day over a period of five days using the CellTiter-Glo luminescent cell viability assay kit from Promega Co.
Cell Titer-Glo luminescent cell viability assay kit from Promega Co (Madison, Wis.) was used to determine cell growth inhibition by the various compounds tested. The kit determines cell viability by quantifying the amount of ATP present in the cell culture medium. Presence of ATP signals the presence of metabolically active cells (3). The intensity of luminescence was measured by a computerized luminometer (Promega, Co. Madison, Wis.). Each well was read five times within 30 minutes of adding Cell Titer-Glo reagent mixture. […]

[3] = test system: NCI-60 cancer panel; settings: average across the cell lines of the concentration at which growth is inhibited 50%; unit in the High Conc. footnote; cited from earlier work
[4] = test system: U266 myeloma cell line; parameters: cell viability (CellTiter-Glo luminescent assay): dose or concentration left out as unconfirmed; settings: U266
Procedure: as §1
U266 cell line was one of 12 myeloma cell lines used in screening of anti-myeloma agents. In FIG. 10A, cells were treated with 14 ellipticine derivatives (0.5 mM) obtained from the DTP; control cells were untreated. Ellipticine derivatives are coded with NSC identifiers. For 5 days, cell viability was measured every 24 hours using CellTiter-Glo Luminescent Assay. […] In FIG. 10B, U266 cells, along with six other myeloma cell lines, were co-cultured in direct contact with human fetal bone mesenchymal cells and treated with EPED3 (0.5 mM and 2 mM) or Velcade (0.5 mM); control cells were untreated. Cell proliferation was assessed by MTT assay every 24 hours for 5 days. […] Error bars indicate standard deviation.
(§2) Cell Titer-Glo luminescent cell viability assay kit from Promega Co (Madison, Wis.) was used to determine cell growth inhibition by the various compounds tested. The kit determines cell viability by quantifying the amount of ATP present in the cell culture medium. Presence of ATP signals the presence of metabolically active cells (3). The intensity of luminescence was measured by a computerized luminometer (Promega, Co. Madison, Wis.). Each well was read five times within 30 minutes of adding Cell Titer-Glo reagent mixture.
(§3) Cells were contacted with the antineoplastic agents in ninety six well culture plates. The concentration of each neoplastic agent was maintained a constant. A cell culture medium control and 0.5% DMSO control were maintained in each set of experiments. The cell viability was tested every day using the CellTiter-Glo luminescent cell viability kit from Promega Co. (Madison, Wis.) for a period of five days.

[5] = test system: CAG myeloma cell line; assay: CellTiter-Glo luminescent cell viability assay, CAG; assay type: cell-based, human; parameters: unit of the concentration uncertain
Procedure: as §1, §2, §3

[6] = test system: Ark myeloma cell line; assay: CellTiter-Glo luminescent cell viability assay, Ark; assay type: cell-based, human; parameters: unit of the concentration uncertain
Procedure: as §1, §2, §3

[7] = test system: DNA strand breakage; settings: Multon et al., 1989; cited from earlier work

COc1ccc2[nH]c3c(C)c4ccncc4c(C)c3c2c1 [NSC 69187, ellipticine-9-methoxy-]
inhibition of cell viability in four myeloma cell lines ([1]; 0.5 mg/ml, every 24 hours over 5 days): most significantly inhibited cell viability | effective invitro dosage (cell growth inhibition) ([1]; myeloma cell lines): 0.2 µM | cell viability (CellTiter-Glo luminescent assay) ([2]; 0.02 (unit uncertain), Day 1): 103,366 | cell viability (CellTiter-Glo luminescent assay) ([2]; 0.02 (unit uncertain), Day 2): 238,331 | cell viability (CellTiter-Glo luminescent assay) ([2]; 0.02 (unit uncertain), Day 3): 411,171 | cell viability (CellTiter-Glo luminescent assay) ([2]; 0.02 (unit uncertain), Day 4): 869,367 | cell viability (CellTiter-Glo luminescent assay) ([2]; 0.02 (unit uncertain), Day 5): 1,011,078 | cell viability (CellTiter-Glo luminescent assay) ([2]; 0.2 (unit uncertain), Day 1): 82,834 | cell viability (CellTiter-Glo luminescent assay) ([2]; 0.2 (unit uncertain), Day 2): 148,198 | cell viability (CellTiter-Glo luminescent assay) ([2]; 0.2 (unit uncertain), Day 3): 216,515 | cell viability (CellTiter-Glo luminescent assay) ([2]; 0.2 (unit uncertain), Day 4): 311,641 | cell viability (CellTiter-Glo luminescent assay) ([2]; 0.2 (unit uncertain), Day 5): 379,475 | cell viability (CellTiter-Glo luminescent assay) ([2]; 2 (unit uncertain), Day 1): 21,912 | cell viability (CellTiter-Glo luminescent assay) ([2]; 2 (unit uncertain), Day 2): 2,688 | cell viability (CellTiter-Glo luminescent assay) ([2]; 2 (unit uncertain), Day 3): 820 | cell viability (CellTiter-Glo luminescent assay) ([2]; 2 (unit uncertain), Day 4): 601 | cell viability (CellTiter-Glo luminescent assay) ([2]; 2 (unit uncertain), Day 5): 213 | Mean GI50 [3]: −6.35 log^10 molar | cell viability (CellTiter-Glo luminescent assay) ([4]; 0.02, Day 1): 30,188 | cell viability (CellTiter-Glo luminescent assay) ([4]; 0.02, Day 2): 46,889 | cell viability (CellTiter-Glo luminescent assay) ([4]; 0.02, Day 3): 63,864 | cell viability (CellTiter-Glo luminescent assay) ([4]; 0.02, Day 4): 112,366 | cell viability (CellTiter-Glo luminescent assay) ([4]; 0.02, Day 5): 145,073 | cell viability (CellTiter-Glo luminescent assay) ([4]; 0.2, Day 1): 24,729 | cell viability (CellTiter-Glo luminescent assay) ([4]; 0.2, Day 2): 38,799 | cell viability (CellTiter-Glo luminescent assay) ([4]; 0.2, Day 3): 45,134 | cell viability (CellTiter-Glo luminescent assay) ([4]; 0.2, Day 4): 69,867 | cell viability (CellTiter-Glo luminescent assay) ([4]; 0.2, Day 5): 90,555 | cell viability (CellTiter-Glo luminescent assay) ([4]; 2, Day 1): 7,818 | cell viability (CellTiter-Glo luminescent assay) ([4]; 2, Day 2): 3,633 | cell viability (CellTiter-Glo luminescent assay) ([4]; 2, Day 3): 1,048 | cell viability (CellTiter-Glo luminescent assay) ([4]; 2, Day 4): 628 | cell viability (CellTiter-Glo luminescent assay) ([4]; 2, Day 5): 144 | cell viability (CellTiter-Glo luminescent assay) ([5]; 0.02 (unit uncertain), Day 1): 188,754 | cell viability (CellTiter-Glo luminescent assay) ([5]; 0.02 (unit uncertain), Day 2): 552,402 | cell viability (CellTiter-Glo luminescent assay) ([5]; 0.02 (unit uncertain), Day 3): 805,110 | cell viability (CellTiter-Glo luminescent assay) ([5]; 0.02 (unit uncertain), Day 4): 2,582,505 | cell viability (CellTiter-Glo luminescent assay) ([5]; 0.02 (unit uncertain), Day 5): 4,299,468 | cell viability (CellTiter-Glo luminescent assay) ([5]; 0.2 (unit uncertain), Day 1): 164,436 | cell viability (CellTiter-Glo luminescent assay) ([5]; 0.2 (unit uncertain), Day 2): 358,735 | cell viability (CellTiter-Glo luminescent assay) ([5]; 0.2 (unit uncertain), Day 3): 511,726 | cell viability (CellTiter-Glo luminescent assay) ([5]; 0.2 (unit uncertain), Day 4): 1,187,656 | cell viability (CellTiter-Glo luminescent assay) ([5]; 0.2 (unit uncertain), Day 5): 1,595,148 | cell viability (CellTiter-Glo luminescent assay) ([5]; 2 (unit uncertain), Day 1): 88,285 | cell viability (CellTiter-Glo luminescent assay) ([5]; 2 (unit uncertain), Day 2): 58,508 | cell viability (CellTiter-Glo luminescent assay) ([5]; 2 (unit uncertain), Day 3): 17,247 | cell viability (CellTiter-Glo luminescent assay) ([5]; 2 (unit uncertain), Day 4): 9,111 | cell viability (CellTiter-Glo luminescent assay) ([5]; 2 (unit uncertain), Day 5): 1,745 | cell viability (CellTiter-Glo luminescent assay) ([6]; 0.02 (unit uncertain), Day 1): 119,617 | cell viability (CellTiter-Glo luminescent assay) ([6]; 0.02 (unit uncertain), Day 2): 244,779 | cell viability (CellTiter-Glo luminescent assay) ([6]; 0.02 (unit uncertain), Day 3): 371,712 | cell viability (CellTiter-Glo luminescent assay) ([6]; 0.02 (unit uncertain), Day 4): 824,251 | cell viability (CellTiter-Glo luminescent assay) ([6]; 0.02 (unit uncertain), Day 5): 1,347,042 | cell viability (CellTiter-Glo luminescent assay) ([6]; 0.2 (unit uncertain), Day 1): 92,678 | cell viability (CellTiter-Glo luminescent assay) ([6]; 0.2 (unit uncertain), Day 2): 208,050 | cell viability (CellTiter-Glo luminescent assay) ([6]; 0.2 (unit uncertain), Day 3): 256,789 | cell viability (CellTiter-Glo luminescent assay) ([6]; 0.2 (unit uncertain), Day 4): 506,725 | cell viability (CellTiter-Glo luminescent assay) ([6]; 0.2 (unit uncertain), Day 5): 826,957 | cell viability (CellTiter-Glo luminescent assay) ([6]; 2 (unit uncertain), Day 1): 14,932 | cell viability (CellTiter-Glo luminescent assay) ([6]; 2 (unit uncertain), Day 2): 815 | cell viability (CellTiter-Glo luminescent assay) ([6]; 2 (unit uncertain), Day 3): 289 | cell viability (CellTiter-Glo luminescent assay) ([6]; 2 (unit uncertain), Day 4): 463 | cell viability (CellTiter-Glo luminescent assay) ([6]; 2 (unit uncertain), Day 5): 375

CCN(CC)CC[n+]1ccc2c(C)c3[nH]c4ccc(O)cc4c3c(C)c2c1 [Detalliptinium]
potency in DNA strand breakage, times less than m-AMSA [7]: 50 times
